Experiment [1] deals with C. elegans (N2 worms). The settings on record: effect of PTZ application; concentration not given; cited from earlier work.
For experiment [2], the system named is unc-25 and unc-49 loss of function mutant C. elegans. The settings on record: unc-25 and unc-49 mutants; concentration not given; cited from earlier work.
In experiment [3] the test system is C. elegans (N2 worms). Put plainly: C. elegans electroshock seizure assay (recovery time; with or without PTZ). It is filed as in vivo. The settings on record: 3 mM (3000 μM); with PTZ; control AED. The source says:
FIG. 2 is a graph showing recovery time (seconds) for N2 worms (vertical axis) in the presence of M9 or pentylenetetrazol (PTZ) (first two bars). In other experiments, PTZ is combined with either an RVM or sodium valproate.
FIG. 3 left is the structure of RVM-3, and FIG. 3 right is a graph showing recovery time (seconds) for N2 worms (vertical axis) in the presence of M9 or PTZ (first two bars). In other experiments, PTZ is combined with RVM-3 at varying concentrations or sodium valproate.
The structures of these RVMs are comprised of an all-carbon bridged bicyclic scaffold that is fully saturated, a motif that is without precedent in the AED literature. […] It is expected that a pharmacological intervention based on RVMs will provide relief from epileptic events at low dosages.
The C. elegans seizure assay includes placing L4 C. elegans into a small tube that is capped on both sides by copper wires. A shock of 47 V for three seconds is then administered. […] Recovery is recorded when the animals present with coordinated three sinusoidal movements, which is then characterized as normal swimming activity. […]
This C. elegans assay offers a new model for the evaluation of electroconvulsive seizures (FIG. 4). […] Recovery is recorded when the animals present with three sinusoidal movements, which is then characterized as normal swimming activity. […]

Each structure is given as a SMILES string.

Turning to `C1CCc2nnnn2CC1` [PTZ, Pentylenetetrazole], the “seizure-like phenotypes seen in C. elegans” value in experiment [1] was “enhances the seizure-like phenotypes”. Besides, the “sensitivity to electroshock when mutants are additionally treated with PTZ” value in experiment [2] is “sensitivity to electroshock is increased”.

In the case of `CCOC(=O)Nc1ccc(NCc2ccc(F)cc2)cc1N` [Retigabine], the “sensitivity to electroshock when mutants are treated with antiepileptic drugs” value (from here on “sensitivity … with antiepileptic drugs”) in experiment [2] is recorded as “increased sensitivity is rescued”.

`CC[C@@H](C(N)=O)N1CCCC1=O` [Keppra, levetiracetam]: in experiment [2], the “sensitivity … with antiepileptic drugs” value was “increased sensitivity is rescued”.

Consider `CCCC(CCC)C(=O)[O-].[Na+]` [Sodium valproate, sodium valproate], for which the “restoration of recovery time” value in experiment [3] is on record as “relatively modest restoration of recovery time”. In addition, the “sensitivity … with antiepileptic drugs” value in experiment [2] was “increased sensitivity is rescued”.

(Values after patent US20260345543A1, “Bridged Bicyclic Compounds and their Derivatives as Antiepileptic Agents and Methods of Use Thereof” (Florida Atlantic University Board of Trustees, priority 2022, published 2026).)
